Measured values reported in US20110269825A1, “Modified Thromboxane A2 Receptor Promoter Sequence” (priority 2008, published 2011).

Tests used:
HEL 92.1.7 cells = assay: Dual luciferase genetic reporter assay of promoter-directed luciferase expression in HEL cells; assay type: cell-based, human
Protocol: (§1) HEL and EA.hy 926 cells were co-transfected with the various pGL3Basic-recombinant plasmids (2 mg), encoding firefly luciferase, along with pRL-TK (200 ng), encoding renilla luciferase, using DMRIE-C® transfection reagent. HEK293, WI-38, and 1° hAoSMCs were co-transfected with the pGL3Basic-recombinant plasmids (2 mg), along with pRL-TK (200 ng), using Effectene transfection reagent. In all cases, cells co-transfected with pRL-TK (200 ng) in the presence of either the pGL3Control vector (firefly luciferase gene under the control of the SV40 promoter; 2 mg) or the promoter-less pGL3Basic empty vector (2 mg), which served as positive and negative controls, respectively. Firefly and renilla luciferase expression was assayed some 48 h post-transfection using the Dual-Luciferase Reporter Assay System™, as described (Coyle et al., 2005). Relative firefly to renilla luciferase activity (arbitrary units) was calculated as a ratio and was expressed in relative luciferase units (RLU). To investigate the effect of over-expression of exon 5 (+ or −) or KTS (+ or −) isoforms of WT1 on Prm1-directed gene expression, HEL cells were co-transfected with either pGL3b:Prm1 or pGL3b:Prm1D (1.5 μg) plus 200 ng of pRL-TK along with either pcDNA3:WT1 (+/+), pcDNA3:WT1 (+/−), pcDNA3:WT1 (−/+), pcDNA3:WT1 (−/−) (0.5 μg), or as a control, pcDNA3 (0.5 μg). Cells were harvested 48 h post-transfection and assayed for luciferase activity, as above, or subjected to western blot or RT-PCR analysis. The plasmids pcDNA3:WT1 (+/+), pcDNA3:WT1 (+/−), pcDNA3:WT1 (−/+) and pcDNA3:WT1 (−/−) were generously donated by Dr. Charles T. Roberts JR, Oregon National Primate Research Center, Oregon, USA and have been previously described (Tajinda et al., 1999). For PMA studies, approximately 32 h post-transfection, the medium was supplemented with PMA (100 nM), with PMA (100 nM) and PD98059 (10 μM) or, as a control, with vehicle [0.1% (v/v) DMSO]. After 16 h, cells were assayed for firefly and renilla luciferase using the Dual-Luciferase Reporter Assay System™ as previously described (Coyle et al., 2005). The plasmid pCMV5-NAB1, containing the entire coding sequence for NAB1, was generously donated by Dr. Gerald Thiel, University of Saarland Medical Center, Homburg, Germany, and has been described previously (Thiel et al., 2000). To investigate the effect of over-expression of NAB1 on the PMA-mediated induction of Prm1-directed gene expression, HEL cells were transiently co-transfected with pGL3b:Prm1 (2 μg) plus pRL-TK (200 ng) along with either pCMV5 (control) or pCMV:NAB1 (1 μg). Cells were harvested 48 h post-transfection and assayed for luciferase activity, as above.

[1] = tested on: 1° hAoSMC (primary human aortic smooth muscle) cells; assay: Dual luciferase genetic reporter assay in 1° hAoSMC; assay type: cell-based; conditions: for Mean firefly relative to renilla luciferase activity: co-transfected with pRL-TK
Protocol: as §1, with “The plasmid pCMV5-NAB1, containing the entire coding sequence for NAB1, was generously donated by Dr. Gerald Thiel, University of Saarland Medical Center, Homburg, Germany, and has been described previously (Thiel et al., 2000). To investigate the effect of over-expression of NAB1 on the PMA-mediated induction of Prm1-directed gene expression, HEL cells were transiently co-transfected with pGL3b:Prm1 (2 μg) plus pRL-TK (200 ng) along with either pCMV5 (control) or pCMV:NAB1 (1 μg). Cells were harvested 48 h post-transfection and assayed for luciferase activity, as above.” left out

[2] = tested on: WI-38 (human lung fibroblast) cells; assay: Dual luciferase genetic reporter assay in WI-38 cells; assay type: cell-based
Protocol: as §1, with “The plasmid pCMV5-NAB1, containing the entire coding sequence for NAB1, was generously donated by Dr. Gerald Thiel, University of Saarland Medical Center, Homburg, Germany, and has been described previously (Thiel et al., 2000). To investigate the effect of over-expression of NAB1 on the PMA-mediated induction of Prm1-directed gene expression, HEL cells were transiently co-transfected with pGL3b:Prm1 (2 μg) plus pRL-TK (200 ng) along with either pCMV5 (control) or pCMV:NAB1 (1 μg). Cells were harvested 48 h post-transfection and assayed for luciferase activity, as above.” left out

[3] = tested on: EA.hy 926 (human endothelial) cells; assay: Dual luciferase genetic reporter assay in EA.hy 926 cells; assay type: cell-based
Protocol: as §1, with “The plasmid pCMV5-NAB1, containing the entire coding sequence for NAB1, was generously donated by Dr. Gerald Thiel, University of Saarland Medical Center, Homburg, Germany, and has been described previously (Thiel et al., 2000). To investigate the effect of over-expression of NAB1 on the PMA-mediated induction of Prm1-directed gene expression, HEL cells were transiently co-transfected with pGL3b:Prm1 (2 μg) plus pRL-TK (200 ng) along with either pCMV5 (control) or pCMV:NAB1 (1 μg). Cells were harvested 48 h post-transfection and assayed for luciferase activity, as above.” left out

[4] = tested on: HEK (Human embryonic kidney) 293 cells; assay: Dual luciferase genetic reporter assay in HEK 293 cells; assay type: cell-based
Protocol: as §1, with “The plasmid pCMV5-NAB1, containing the entire coding sequence for NAB1, was generously donated by Dr. Gerald Thiel, University of Saarland Medical Center, Homburg, Germany, and has been described previously (Thiel et al., 2000). To investigate the effect of over-expression of NAB1 on the PMA-mediated induction of Prm1-directed gene expression, HEL cells were transiently co-transfected with pGL3b:Prm1 (2 μg) plus pRL-TK (200 ng) along with either pCMV5 (control) or pCMV:NAB1 (1 μg). Cells were harvested 48 h post-transfection and assayed for luciferase activity, as above.” left out

[5] = tested on: human tissue factor (hTF); assay: Immunoblot analysis of promoter-driven human tissue factor expression in HEL cells; assay type: cell-based; conditions: 48 h post-transfection, compared with CMV promoter (pcDNA3.1(−):hTF) and pcDNA3.1(−)
Protocol: The expression of WT1, Sp1, Egr1, NF-E2, GATA-1 and Ets-1 proteins in HEL cells was confirmed by western blot analysis. Briefly, whole cell protein was resolved by SDS-PAGE (10% acrylamide gels) and transferred to polyvinylidene difluoride (PVDF) membrane according to standard methodology. Membranes were screened using anti-WT1, anti-NF-E2, anti-Sp1, anti-Egr1, anti-GATA-1 or anti-Ets-1 sera in 5% non fat dried milk in 1×TBS (0.01 M Tris/HCl, 0.1 M NaCl) for 2 h at room temperature followed by washing and screening using goat anti-rabbit horseradish peroxidase (sc-2204) followed by chemiluminescence detection, as described by the supplier (Roche Applied Science). For PMA studies, HEL cells were pre-incubated for the indicated amount of time with 100 nM PMA, with 10 μM PD98059, with 100 nM PMA plus 10 μM PD98059 or, as a control, with vehicle [0.1% (v/v) DMSO]. Whole cell protein (60 μg per lane) was resolved by SDS-PAGE (10% acrylamide gels) and transferred to polyvinylidene difluoride (PVDF) membrane according to standard methodology. […] Cells were harvested 48 hr post-transfection and aliquots ([…]) were analysed by SDS-PAGE/western blot analysis. As a positive control for hTF expression, […] of a commercial control Tissue-Factor Biomass was also analysed. […]

Prm1 = conditions: cited from earlier work
Prm3 = conditions: cited from earlier work
[6] = tested on: Prm1-directed luciferase expression; assay: Effect of over-expression of WT1 isoforms, Egr1 or NAB1 on Prm1-directed luciferase expression in HEL cells; assay type: cell-based, human
Protocol: HEL and EA.hy 926 cells were co-transfected with the various pGL3Basic-recombinant plasmids (2 mg), encoding firefly luciferase, along with pRL-TK (200 ng), encoding renilla luciferase, using DMRIE-C® transfection reagent. HEK293, WI-38, and 1° hAoSMCs were co-transfected with the pGL3Basic-recombinant plasmids (2 mg), along with pRL-TK (200 ng), using Effectene transfection reagent. In all cases, cells co-transfected with pRL-TK (200 ng) in the presence of either the pGL3Control vector (firefly luciferase gene under the control of the SV40 promoter; 2 mg) or the promoter-less pGL3Basic empty vector (2 mg), which served as positive and negative controls, respectively. Firefly and renilla luciferase expression was assayed some 48 h post-transfection using the Dual-Luciferase Reporter Assay System™, as described (Coyle et al., 2005). Relative firefly to renilla luciferase activity (arbitrary units) was calculated as a ratio and was expressed in relative luciferase units (RLU). To investigate the effect of over-expression of exon 5 (+ or −) or KTS (+ or −) isoforms of WT1 on Prm1-directed gene expression, HEL cells were co-transfected with either pGL3b:Prm1 or pGL3b:Prm1D (1.5 μg) plus 200 ng of pRL-TK along with either pcDNA3:WT1 (+/+), pcDNA3:WT1 (+/−), pcDNA3:WT1 (−/+), pcDNA3:WT1 (−/−) (0.5 μg), or as a control, pcDNA3 (0.5 μg). […]

Prm1^GC*^(−8146): Prm1 with GC element at −8146 mutated (SEQ ID NO:13) (DNA CGGGGGTCGTGGGGTGGATGGCGGGCCAA; expressed or natural sequence; listed as Homo sapiens)
Ratio of luciferase expression relative to that directed by pGL3Control (HEL 92.1.7 cells; HEL): 2.65 | Mean firefly relative to renilla luciferase activity (HEL 92.1.7 cells; HEL cells, co-transfected with pRL-TK, 48 h post-transfection): 21.5 RLU | Increase in luciferase activity relative to Prm1 (−8500) (HEL 92.1.7 cells; HEL, 5′ deletion or site-directed mutation of Prm1): 2.5 fold | Luciferase expression compared with another construct, in words (HEL 92.1.7 cells; HEL, comparator as named in the words or parent fragment): significantly stronger promoters | Ratio of luciferase expression relative to that directed by pGL3Control [1]: 1.18 | Mean firefly relative to renilla luciferase activity [1]: 82.67 RLU | Mean firefly relative to renilla luciferase activity ([1]; listed as pGL3BPrm1GC-8146): 82.668 RLU | Ratio of luciferase expression relative to that directed by pGL3Control ([2]; WI-38): 0.51 | Statistical significance of luciferase expression vs Prm1 ([2]; WI-38, ↑ = increase): ns | Mean firefly relative to renilla luciferase activity ([2]; WI-38 cells, co-transfected with pRL-TK): 59.01 RLU | Ratio of luciferase expression relative to that directed by pGL3Control ([3]; EA.hy 926): 0.06 | Statistical significance of luciferase expression vs Prm1 ([3]; EA.hy 926, ↑ = increase): ns | Mean firefly relative to renilla luciferase activity ([3]; EA.hy 926 cells, co-transfected with pRL-TK): 3.11 RLU | Ratio of luciferase expression relative to that directed by pGL3Control ([4]; HEK): 0.69 | Statistical significance of luciferase expression vs Prm1 ([4]; HEK 293, ↑ = increase): ns | Mean firefly relative to renilla luciferase activity ([4]; HEK 293 cells, co-transfected with pRL-TK): 6.9 RLU | Level of human tissue factor expression driven by the promoter [5]: significantly greater

CCCCC/C=C/C=C1/C(=O)C=C[C@@H]1C/C=C\CCCC(=O)O [15d-PGJ2, 15-deoxy-Δ12,14-prostaglandin J2]
Effect on Prm1 (Prm1): had no effect on Prm1 | Effect on transcriptional activity of Prm3 (Prm3): suppressed the transcriptional activity of Prm3

B1: NAB1: Egr1 co-repressor NGFI-A-binding protein 1, over-expressed from pCMV5-NAB1 (protein)
chain: MAAALPRTLGELQLYRILQKANLLSYFDAFIQQGGDDVQQLCEAGEEEFLEIMALVGMASKPLHVRRLQKALRDWVTNPGLFNQPLTSLPVSSIPIYKLPEGSPTWLGISCSSYERSSNAREPHLKIPKCAATTCVQSLGQGKSDVVGSLALQSVGESRLWQGHHATESEHSLSPADLGSPASPKESSEALDAAAALSVAECVERMAPTLPKSDLNEVKELLKTNKKLAKMIGHIFEMNDDDPHKEEEIRKYSAIYGRFDSKRKDGKHLTLHELTVNEAAAQLCVKDNALLTRRDELFALARQISREVTYKYTYRTTKSKCGERDELSPKRIKVEDGFPDFQDSVQTLFQQARAKSEELAALSSQQPEKVMAKQMEFLCNQAGYERLQHAERRLSAGLYRQSSEEHSPNGLTSDNSDGQGERPLNLRMPNLQNRQPHHFVVDGELSRLYPSEAKSHSSESLGILKDYPHSAFTLEKKVIKTEPEDSR
Effect of NAB1 over-expression on PMA-induction of Prm1 activity ([6]; HEL, PMA 100 nM 16 h): significantly reduced the PMA-induction of Prm1 activity | Effect of NAB1 over-expression on Prm1-directed luciferase activity ([6]; vehicle-treated HEL cells): did not significantly affect Prm1-directed luciferase activity
